Counter-ions that a name gives are not always drawn. Like-named read-outs stand apart in the source and are kept apart here.
What was measured:
[1] = system: NCI-H292 lung cancer cells; experiment: FDA drug screening, complete media vs cholesterol-free media without statin (TABLE 1); format: cell-based, human
[2] = system: NCI-H292 lung cancer cells; experiment: FDA drug screening, complete media vs cholesterol-free media with simvastatin (TABLE 2); format: cell-based, human
[3] = Complete minus Cholesterol-free, >0 enhanced anti-cancer activity, about 0 neutral, <0 antagonist
[4] = NCI-H292 cells, cholesterol-free media without statin
[5] = NCI-H292 cells, FDA drug library screen, cholesterol-free media with simvastatin 0.04 μM
[6] = NCI-H292 cells, FDA drug library screen, complete media
[7] = complete media vs cholesterol-free media + simvastatin (0.04 μM), >0 enhanced anti-cancer activity, about 0 neutral, <0 antagonist
[8] = Complete minus Cholesterol-free, greater than 0 enhanced anti-cancer activity, about 0 neutral, below 0 antagonists
[9] = NCI-H292 cells in cholesterol-free media without statin
[10] = NCI-H292 cells in complete media
[11] = NCI-H292 cells, FDA library drug in cholesterol-free media with simvastatin 0.04 μM
[12] = NCI-H292 cells, FDA library drug in complete media
[13] = NCI-H292 cells, cholesterol-free media without statin, FDA drug library screen
[14] = NCI-H292 cells, complete media, FDA drug library screen
[15] = complete vs cholesterol-free media, >0 enhanced anti-cancer activity, about 0 neutral, <0 antagonist
[16] = complete media minus cholesterol-free media + simvastatin, >0 enhanced anti-cancer activity, about 0 neutral, <0 antagonist
[17] = NCI-H292 cells, cholesterol-free media with simvastatin 0.04 μM, cell growth value in FDA drug screen
[18] = NCI-H292 cells, complete media, cell growth value in FDA drug screen
[19] = complete vs cholesterol-free media, greater than 0 enhanced anti-cancer activity, about 0 neutral, below 0 antagonists
[20] = NCI-H292 cells, drug in cholesterol-free media with simvastatin 0.04 μM
[21] = NCI-H292 cells, drug in complete media
[22] = NCI-H292 cells, cholesterol-free media with simvastatin 0.04 μM, FDA drug library screen (TABLE 2)
[23] = complete media minus cholesterol-free media + simvastatin (0.04 μM), >0 enhanced anti-cancer activity, about 0 neutral, <0 antagonist
[24] = NCI-H292 cells, complete media, FDA drug library screen (TABLE 2)
[25] = complete vs cholesterol-free media, […]
[26] = complete media minus cholesterol-free media + simvastatin, […]
[27] = Complete minus Cholesterol-free, greater than 0 enhanced anti-cancer activity, about 0 neutral, below 0 antagonist
[28] = NCI-H292 cells, FDA drug library screen, cholesterol-free media without statin
[29] = Complete minus Cholesterol-free, […]

CN(C)CCCN1c2ccccc2CCc2ccccc21 [Imipramine (hydrochloride)]
Difference [1, 3]: −0.21 | Cholesterol-free [1, 4]: 1.052 | Complete ([1]; NCI-H292 cells, complete media): 0.8395 | Cholesterol-free media + simvastatin (0.04 μM) [2, 5]: 0.9417 | Complete Media [2, 6]: 0.8694 | Difference [2, 7]: −0.07

Cc1cc(C)cc(OCC2CNC(=O)O2)c1 (stereo not shown) [Metaxalone]
Difference [1, 8]: −0.49 | Cholesterol-free [1, 9]: 1.567 | Complete [1, 10]: 1.078 | Cholesterol-free media + simvastatin (0.04 μM) [2, 11]: 1.3 | Complete Media [2, 12]: 1.014 | Difference [2, 7]: −0.29

COc1ccc2c(c1)c(CC(=O)OCC(=O)O)c(C)n2C(=O)c1ccc(Cl)cc1 [Acemetacin]
Cholesterol-free [1, 13]: 1.099 | Complete [1, 14]: 1.479 | Difference [1, 15]: 0.38 | Cholesterol-free media + simvastatin (0.04 μM) [2, 11]: 2.236 | Complete Media [2, 12]: 1.509 | Difference [2, 7]: −0.73

COc1ccccc1N1CCN(CCCNc2cc(=O)n(C)c(=O)n2C)CC1 [Urapidil (hydrochloride)]
Difference [1, 3]: −0.28 | Cholesterol-free [1, 4]: 1.01 | Complete ([1]; NCI-H292 cells, complete media): 0.7335 | Cholesterol-free media + simvastatin (0.04 μM) [2, 11]: 1.22 | Complete Media [2, 12]: 0.87 | Difference [2, 7]: −0.35

O=c1[nH]cnc2c1ncn2[C@@H]1O[C@H](CO)[C@@H](O)[C@H]1O [Inosine]
Difference [1, 3]: 0.02 | Cholesterol-free [1, 13]: 0.9203 | Complete [1, 14]: 0.941 | Cholesterol-free media + simvastatin (0.04 μM) [2, 5]: 0.924 | Complete Media [2, 6]: 1.085 | Difference [2, 16]: 0.16

CC(C)C(=O)Oc1ccc(CO)cc1[C@H](CCN(C(C)C)C(C)C)c1ccccc1 [Fesoterodine (L-mandelate)]
Cholesterol-free [1, 13]: 0.7419 | Complete [1, 14]: 1.264 | Difference [1, 15]: 0.52 | Cholesterol-free media + simvastatin (0.04 μM) [2, 5]: 1.103 | Complete Media [2, 6]: 0.9892 | Difference [2, 7]: −0.11

O=c1cccc2n1C[C@@H]1CNC[C@H]2C1 [Cytisinicline]
Cholesterol-free [1]: 1.156 | Complete [1]: 0.9676 | Difference [1]: −0.19 | Cholesterol-free media + simvastatin (0.04 μM) [2]: 1.003 | Complete Media [2]: 1.015 | Difference [2]: 0.01

Cc1cc(Nc2ncc(Cl)c(Nc3ccccc3S(=O)(=O)C(C)C)n2)c(OC(C)C)cc1C1CCNCC1 [Ceritinib dihydrochloride]
Difference [1, 3]: −0.02 | Cholesterol-free [1, 13]: 0.3644 | Complete [1, 14]: 0.3489 | Cholesterol-free media + simvastatin (0.04 μM) [2, 5]: 0.1666 | Complete Media [2, 6]: 0.03677 | Difference [2, 7]: −0.13

CC(=O)O[C@]1(C(C)=O)CC[C@H]2[C@@H]3C=C(Cl)C4=CC(=O)[C@@H]5C[C@@H]5[C@]4(C)[C@H]3CC[C@@]21C [Cyproterone acetate]
Difference [1, 8]: −1.74 | Cholesterol-free [1, 9]: 2.754 | Complete [1, 10]: 1.015 | Cholesterol-free media + simvastatin (0.04 μM) [2, 17]: 1.003 | Complete Media [2, 18]: 1.068 | Difference [2, 16]: 0.07

CC(C)NCC(O)c1ccc(NS(C)(=O)=O)cc1 (stereo not shown) [Sotalol (hydrochloride)]
Cholesterol-free [1, 4]: 1.39 | Complete ([1]; NCI-H292 cells, complete media): 0.9629 | Difference [1, 19]: −0.43 | Cholesterol-free media + simvastatin (0.04 μM) [2, 5]: 0.8339 | Complete Media [2, 6]: 0.7583 | Difference [2, 7]: −0.08

CC(C)(O)C(Cl)(Cl)Cl [Chlorobutanol]
Difference [1, 3]: 0.02 | Cholesterol-free [1, 13]: 0.5641 | Complete [1, 14]: 0.5799 | Cholesterol-free media + simvastatin (0.04 μM) [2, 20]: 1.763 | Complete Media [2, 21]: 1.523 | Difference [2, 7]: −0.24

Prucalopride (succinate)
Cholesterol-free [1, 4]: 1.329 | Complete ([1]; NCI-H292 cells, complete media): 0.905 | Difference [1, 19]: −0.42 | Cholesterol-free media + simvastatin (0.04 μM) [2, 5]: 1.172 | Complete Media [2, 6]: 1.048 | Difference [2, 7]: −0.12

C[C@]12C=CC(=O)C=C1CC[C@H]1[C@@H]3C[C@@H](O)[C@](O)(C(=O)CO)[C@@]3(C)C[C@H](O)[C@@]12F [Triamcinolone]
Difference [1, 3]: −0.27 | Cholesterol-free [1, 4]: 0.8896 | Complete ([1]; NCI-H292 cells, complete media): 0.6155 | Cholesterol-free media + simvastatin (0.04 μM) [2, 22]: 1.201 | Difference [2, 23]: −0.04

COCC(=O)Nc1c(I)c(C(=O)NCC(O)CO)c(I)c(C(=O)N(C)CC(O)CO)c1I (stereo not shown) [Iopromide]
Cholesterol-free [1, 13]: 0.9462 | Complete [1, 14]: 1.578 | Difference [1, 15]: 0.63 | Cholesterol-free media + simvastatin (0.04 μM) [2, 22]: 0.8199 | Complete Media [2, 24]: 0.7955 | Difference [2, 23]: −0.02

CC/C(=C(/CC)c1ccc(O)cc1)c1ccc(O)cc1 [Diethylstilbestrol]
Cholesterol-free [1, 13]: 0.5644 | Complete [1, 14]: 0.9798 | Difference [1, 15]: 0.42 | Cholesterol-free media + simvastatin (0.04 μM) [2, 17]: 0.993 | Complete Media [2, 18]: 1.095 | Difference [2, 16]: 0.10

O=C1[C@H]2CCCC[C@H]2C(=O)N1CCCCN1CCN(c2nsc3ccccc23)CC1 [Perospirone]
Cholesterol-free [1, 4]: 1.046 | Complete ([1]; NCI-H292 cells, complete media): 0.7154 | Difference [1, 19]: −0.33 | Cholesterol-free media + simvastatin (0.04 μM) [2, 22]: 0.9946 | Complete Media [2, 24]: 0.9329 | Difference [2, 23]: −0.06

CC(C)NCC(O)COc1ccc(COCCOC(C)C)cc1.CC(C)NCC(O)COc1ccc(COCCOC(C)C)cc1.O=C(O)/C=C/C(=O)O (racemic) [(±)-Bisoprolol (hemifumarate)]
Difference [1, 3]: −0.20 | Cholesterol-free [1, 4]: 1.077 | Complete ([1]; NCI-H292 cells, complete media): 0.8813 | Cholesterol-free media + simvastatin (0.04 μM) [2, 5]: 0.9429 | Difference [2, 16]: 0.21

CCCCCCCCC(=O)NCc1ccc(O)c(OC)c1 [Nonivamide]
Complete ([1]; NCI-H292 cells, complete media): 1.201 | Difference [1, 25]: −0.42 | Cholesterol-free media + simvastatin (0.04 μM) ([2]; NCI-H292 cells, cholesterol-free media with simvastatin 0.04 μM, […]): 1.059 | Complete Media ([2]; NCI-H292 cells, complete media, […]): 1.139 | Difference [2, 26]: 0.08

CCOC(=O)[C@@H](N)Cc1ccc(-c2cc(O[C@H](c3ccc(Cl)cc3-n3ccc(C)n3)C(F)(F)F)nc(N)n2)cc1 [Telotristat ethyl]
Cholesterol-free [1, 4]: 1.253 | Complete ([1]; NCI-H292 cells, complete media): 0.9282 | Difference [1, 19]: −0.32 | Cholesterol-free media + simvastatin (0.04 μM) [2, 5]: 1.11 | Complete Media [2, 6]: 0.9913 | Difference [2, 7]: −0.12

CN1CCC2=C(C1)c1ccccc1Cc1ccccc12 [Setiptiline]
Difference [1, 27]: −0.08 | Cholesterol-free [1, 28]: 1.103 | Complete [1, 6]: 1.024 | Cholesterol-free media + simvastatin (0.04 μM) [2, 20]: 1.048 | Complete Media [2, 21]: 0.8546 | Difference [2, 7]: −0.19

Lefamulin (acetate)
Difference [1, 29]: −0.23 | Cholesterol-free [1, 4]: 1.096 | Complete ([1]; NCI-H292 cells, complete media): 0.8619 | Cholesterol-free media + simvastatin (0.04 μM) [2, 5]: 1.429 | Complete Media [2, 6]: 1.575 | Difference [2, 26]: 0.15

CCCCCCO[C@@H](C)c1cccc(-c2csc(NC(=O)c3cc(Cl)c(/C=C(\C)C(=O)O)c(Cl)c3)n2)c1OC [Lusutrombopag]
Difference [1, 3]: −0.26 | Cholesterol-free [1, 4]: 1.148 | Complete ([1]; NCI-H292 cells, complete media): 0.8829 | Cholesterol-free media + simvastatin (0.04 μM) [2, 20]: 0.9436 | Complete Media [2, 21]: 0.7827 | Difference [2, 7]: −0.16

CC(=O)CCCCn1c(=O)c2c(ncn2C)n(C)c1=O [Pentoxifylline]
Difference [1, 3]: −0.26 | Cholesterol-free [1, 4]: 1.143 | Complete ([1]; NCI-H292 cells, complete media): 0.8845 | Cholesterol-free media + simvastatin (0.04 μM) [2, 22]: 0.9442 | Complete Media [2, 24]: 0.9268 | Difference [2, 23]: −0.02

Bivalirudin (TFA)
Cholesterol-free [1, 13]: 1.02 | Complete [1, 14]: 1.118 | Difference [1, 25]: 0.10 | Complete Media [2, 6]: 0.9368 | Difference ([2]; complete media vs cholesterol-free media + simvastatin (0.04 μM), […]): −0.13

O=S(=O)([O-])CCSSCCS(=O)(=O)[O-].[Na+].[Na+] [Dimesna]
Difference [1, 29]: −0.18 | Cholesterol-free [1, 28]: 1.073 | Complete [1, 6]: 0.897 | Cholesterol-free media + simvastatin (0.04 μM) [2, 5]: 0.7165 | Complete Media [2, 6]: 1.057 | Difference [2, 26]: 0.34

CCc1c2c(nc3ccc(OC(=O)N4CCC(N5CCCCC5)CC4)cc13)-c1cc3c(c(=O)n1C2)COC(=O)[C@]3(O)CC [Irinotecan (hydrochloride trihydrate)]
Difference [1, 27]: −0.10 | Cholesterol-free [1, 28]: 0.3845 | Complete [1, 6]: 0.2808 | Cholesterol-free media + simvastatin (0.04 μM) [2, 5]: 0.6283 | Complete Media [2, 6]: 0.5165 | Difference [2, 7]: −0.11

NC[C@H]1CC[C@H](C(=O)O)CC1 [Tranexamic acid]
Difference [1, 8]: −0.77 | Cholesterol-free [1, 9]: 2.288 | Complete [1, 10]: 1.522 | Cholesterol-free media + simvastatin (0.04 μM) [2, 20]: 1.894 | Complete Media [2, 21]: 1.678 | Difference [2, 7]: −0.22

Nc1ccn([C@@H]2CS[C@H](CO)O2)c(=O)n1 [Lamivudine]
Difference [1, 3]: −0.22 | Cholesterol-free [1, 4]: 1.216 | Complete ([1]; NCI-H292 cells, complete media): 0.9947 | Cholesterol-free media + simvastatin (0.04 μM) [2, 11]: 1.644 | Difference [2, 7]: −0.47

CCOc1nc2cccc(C(=O)OC(C)OC(=O)OC3CCCCC3)c2n1Cc1ccc(-c2ccccc2-c2nnn[nH]2)cc1 (stereo not shown) [Candesartan Cilexetil]
Difference [1, 27]: −0.16 | Cholesterol-free [1, 28]: 1.093 | Complete [1, 6]: 0.9304 | Cholesterol-free media + simvastatin (0.04 μM) [2, 20]: 1.18 | Complete Media [2, 21]: 0.9738 | Difference [2, 7]: −0.21

From patent US20250144067A1, “PERSONALIZED STARVATION THERAPY FOR CANCER” (Faeth Therapeutics, Inc., priority 2021, published 2025)
